Test results published in US8648083B2, “Method of treating diabetic hyperlipidemia or hyperlipidemia with carbamoyloxy arylalkanoyl arylpiperazine compounds” (SK Biopharmaceuticals Co., Ltd., priority 2010, dated 2014).
Counter-ions that a name gives are not always drawn.

Experiments:
[1] = biological target: T1, rabbit reticulocyte cells-induced 15-lipoxygenase (Oryctolagus cuniculus, UniProt P12530); assay: In-vitro test on inhibitory effect on 15-lipoxygenase (13-HPODE formation, absorbance 660 nm); type: biochemical; conditions: compound 10 uM; 260 μM linolenic acid; 4° C.; PBS pH 7.4; read-out: 15-lipoxygenase Inhibitory level at 10 uM (%)
T1 construct: rabbit reticulocyte cells-induced 15-lipoxygenase as a test group; from tissue; host or cells: rabbit reticulocytes
T1 sequence (P12530 1-663): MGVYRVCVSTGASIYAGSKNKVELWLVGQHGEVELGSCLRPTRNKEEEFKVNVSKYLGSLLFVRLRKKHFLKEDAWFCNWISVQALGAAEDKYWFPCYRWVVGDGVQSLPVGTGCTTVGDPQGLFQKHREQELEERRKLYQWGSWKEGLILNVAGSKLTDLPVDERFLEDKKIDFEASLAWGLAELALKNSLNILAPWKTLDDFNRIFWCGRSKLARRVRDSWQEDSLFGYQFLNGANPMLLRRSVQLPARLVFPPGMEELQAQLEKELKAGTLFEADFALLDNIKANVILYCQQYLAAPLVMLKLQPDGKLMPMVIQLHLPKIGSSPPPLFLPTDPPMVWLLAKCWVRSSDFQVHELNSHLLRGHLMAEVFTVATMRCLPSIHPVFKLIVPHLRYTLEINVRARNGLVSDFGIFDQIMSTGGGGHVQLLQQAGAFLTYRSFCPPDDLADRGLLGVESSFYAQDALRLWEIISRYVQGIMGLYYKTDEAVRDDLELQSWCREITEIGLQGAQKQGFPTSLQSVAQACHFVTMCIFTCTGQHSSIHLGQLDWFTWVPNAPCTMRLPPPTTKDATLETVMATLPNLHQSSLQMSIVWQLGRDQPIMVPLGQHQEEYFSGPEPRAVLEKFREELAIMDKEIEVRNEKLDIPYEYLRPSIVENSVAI
Protocol: (§1) 12-lipoxygenase reacts with arachidonate as a substrate to produce 12-hydroxyeicosatetrenoate (12-HETE) as a product. Accordingly, 12-lipoxygenase activity is evaluated by measuring an amount of generated 12-HETE by spectrometry. Also, 15-lipoxygenase reacts with a linolenic acid as a substrate to produce 13-hydroperoxy-9,11-octadecadienoic acid (13-HPODE) as a product. Accordingly, 15-lipoxygenase activity is evaluated by measuring an amount of generated 13-HPODE by spectrometry.
15-lipoxygenase activity was measured when a concentration of each of the compounds was 10 μM. Each sample was pretreated by using a buffer solution buffer solution (phosphate buffered saline buffer, pH 7.4) at a temperature of 4° C. for 15 minutes, and then 260 μM linolenic acid (a concentration thereof was controlled to be 260 μM during reaction) was added and reacted at a temperature of 4° C. for 10 minutes, and an amount of 13-HPODE as a generated product was measured by absorbance at a wavelength of 660 nm.

[2] = biological target: T2, human platelet-induced 12-lipoxygenase (Homo sapiens, UniProt P18054); assay: In-vitro test on inhibitory effect on 12-lipoxygenase (12-HETE formation, absorbance 570 nm); type: biochemical; conditions: compound 10 uM; 30 μM arachidonate; 25° C.; Tris-HCl pH 7.4; read-out: 12-lipoxygenase Inhibitory level at 10 uM (%)
T2 construct: human platelet-induced 12-lipoxygenase as a negative control; from tissue; host or cells: human platelets
T2 sequence (P18054 1-663): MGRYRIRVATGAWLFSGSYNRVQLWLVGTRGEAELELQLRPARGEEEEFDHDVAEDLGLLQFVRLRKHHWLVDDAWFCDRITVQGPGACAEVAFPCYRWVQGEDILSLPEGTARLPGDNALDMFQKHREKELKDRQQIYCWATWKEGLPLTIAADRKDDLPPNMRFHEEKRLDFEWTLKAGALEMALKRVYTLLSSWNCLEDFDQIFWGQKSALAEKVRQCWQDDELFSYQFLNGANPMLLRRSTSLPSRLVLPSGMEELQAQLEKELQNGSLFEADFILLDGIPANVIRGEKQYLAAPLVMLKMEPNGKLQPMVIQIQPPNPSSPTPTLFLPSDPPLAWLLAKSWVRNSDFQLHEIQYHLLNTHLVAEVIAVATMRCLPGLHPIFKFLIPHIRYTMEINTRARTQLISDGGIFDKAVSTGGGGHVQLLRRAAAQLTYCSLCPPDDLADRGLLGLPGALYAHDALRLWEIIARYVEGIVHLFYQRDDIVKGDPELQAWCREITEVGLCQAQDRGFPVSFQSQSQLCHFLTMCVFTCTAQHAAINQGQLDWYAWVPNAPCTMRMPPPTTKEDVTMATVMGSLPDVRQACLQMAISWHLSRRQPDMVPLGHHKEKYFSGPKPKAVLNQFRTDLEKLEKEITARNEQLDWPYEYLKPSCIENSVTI
Protocol: as §1
12-lipoxygenase activity was measured when a concentration of each of the compounds was 10 μM. Each sample was pretreated by using a buffer solution (50 mM Tris-HCl, 0.1% Triton X-100, pH 7.4) at a temperature of 25° C. for 15 minutes and then, 30 μM arachidonate (a concentration thereof was controlled to be 30 μM during reaction) was added thereto and reacted at a temperature of 25° C. for 15 minutes, and an amount of 12-HETE as a generated product was measured by absorbance at a wavelength of 570 nm.

MCP-1 = assay: Pharmaceutical effect test on inflammatory reaction in diabetic nephropathy model: MCP-1 mRNA in renal cortex; type: in vivo, rat; conditions: streptozotocin-diabetic rats; 200 mg/kg orally once a day for 4 weeks; untreated diabetic 3.4±1.0 times control
[3] = test system: Sprague-Dawley rats having diabetes induced by streptozotocin; assay: Pharmaceutical effect test on diabetic hyperlipidemia in diabetes animal model (streptozotocin); type: in vivo, rat; conditions: 200 mg/kg orally once a day for four weeks
Protocol: Sprague-Dawley rats (n=21, 4 weeks, male) were used as lab models (Central Lab. Animal Inc.). Rats (n=14) having diabetes induced by intraperitoneal administration of 50 mg/kg of streptozotocin were used as a test group, and rats (n=7) intraperitoneally administered with only a solvent (100 mM citric acid buffer solution, pH 4.5) were used as a control. Typically, streptozotocin destroys beta cells of the pancreas to induce diabetes, and thus, blood sugar is increased and amounts of cholesterol and triglycerides in serum are increased. 2 days after the administration of streptozotocin, diabetes was induced in the test group. The test group was divided into two groups, and rats of one group were orally administered once a day with 200 mg/kg of (R)-carbamic acid 3-[4-(3,4-dimethoxy-phenyl)-piperazine-1-yl]-3-oxo-1-phenyl-propyl ester for four weeks. The other group was orally administered with 30% polyethylene glycol (PEG) instead of the compound.
After the 4-week administration of the compound and PEG, amounts of total cholesterol and triglycerides in serum of each of the groups were measured and results thereof are shown in FIGS. 1 and 2. In order to measure the amounts of total cholesterol and triglycerides, serum was isolated from the rats and a Hitachi 7600 auto-analyzer was used.

fibronectin = assay: Pharmaceutical effect test on diabetic nephropathy: fibronectin expression in renal cortex by real-time RT-PCR; type: in vivo, rat; conditions: streptozotocin-diabetic rats; 200 mg/kg orally once a day for 4 weeks; untreated diabetic 1.4±0.1 times control
Protocol: Sprague-Dawley rats (n=21, 4 weeks, male) were used as lab models (Central Lab. Animal Inc.). Rats (n=14) having diabetes induced by intraperitoneal administration of 50 mg/kg of streptozotocin were used as a test group, and rats (n=7) intraperitoneally administered with only a solvent (100 mM citric acid buffer solution, pH 4.5) were used as a control. Typically, in rats having diabetes induced by streptozotocin, diabetic nephropathy is induced by hyperglycemia, and one of the symptoms is renal fibrosis, and gene expression of an extracellular matrix protein such as fibronectin is increased. 2 days after the administration of streptozotocin, diabetes was induced in the test group. […]
After the 4-week administration of the compound and PEG, renal cortex tissues were extracted from each of the groups and then, an expression level of fibronectin was measured by a real-time reverse transcription polymerase chain reaction (that is, an amount of mRNA transcribed from fibronectin) (see FIG. 3). The expression level of fibronectin was measured by using a forward primer (5′-[…]-3′; SEQ ID NO: 1) and a reverse primer (5′-[…]-3′; SEQ ID NO: 2). […] For the control, mRNA transcribed from a beta actin gene was used, and measurement results were indicated by dividing an amount of mRNA of fibronectin quantified from the RT-PCT results by an amount of mRNA of beta actin. […]

PAI-1 = assay: Pharmaceutical effect test on inflammatory reaction in diabetic nephropathy model: PAI-1 mRNA in renal cortex; type: in vivo, rat; conditions: streptozotocin-diabetic rats; 200 mg/kg orally once a day for 4 weeks; untreated diabetic 1.8±0.1 times control
TGF-β1 = assay: Pharmaceutical effect test on inflammatory reaction in diabetic nephropathy model: TGF-β1 mRNA in renal cortex; type: in vivo, rat; conditions: streptozotocin-diabetic rats; 200 mg/kg orally once a day for 4 weeks; untreated diabetic 1.6±0.2 times control

COc1ccc(N2CCN(C(=O)CC(OC(N)=O)c3ccccc3)CC2)cc1OC (centres unmarked) [Example 1, carbamic acid 3-[4-(3,4-dimethoxy-phenyl)-piperazine-1-yl]-3-oxo-1-phenyl-propyl ester]
inhibition at 10 µM [1]: 73%
inhibition at 10 µM [2]: 10%

COc1ccc(N2CCN(C(=O)CC(OC(N)=O)c3ccc(F)cc3)CC2)cc1OC (centres unmarked) [Example 2, carbamic acid 3-[4-(3,4-dimethoxy-phenyl)-piperazine-1-yl]-1-(4-fluoro-phenyl)-3-oxo-propyl ester]
inhibition at 10 µM [1]: 69%
inhibition at 10 µM [2]: -5%

NC(=O)OC(CC(=O)N1CCN(c2ccc3c(c2)OCO3)CC1)c1ccccc1 (centres unmarked) [Example 3, carbamic acid 3-(4-benzo[1,3]dioxol-5-yl-piperazine-1-yl)-3-oxo-1-phenyl-propyl ester]
inhibition at 10 µM [1]: 85%
inhibition at 10 µM [2]: -8%

COc1ccc(N2CCN(C(=O)CC(OC(N)=O)c3ccc(C(F)(F)F)cc3)CC2)cc1OC (centres unmarked) [Example 4, carbamic acid 3-[4-(3,4-dimethoxy-phenyl)-piperazine-1-yl]-1-(4-trifluoromethyl-phenyl)-3-oxo-propyl ester; hydrochloride]
inhibition at 10 µM [1]: 48%
inhibition at 10 µM [2]: 0%

COc1ccc(N2CCN(C(=O)CC(OC(N)=O)c3ccc([N+](=O)[O-])cc3)CC2)cc1OC (centres unmarked) [Example 5, carbamic acid 3-[4-(3,4-dimethoxy-phenyl)-piperazine-1-yl]-1-(4-nitro-phenyl)-3-oxo-propyl ester]
inhibition at 10 µM [1]: 75%
inhibition at 10 µM [2]: 0%

NC(=O)O[C@H](CC(=O)N1CCN(c2ccc(Cl)cc2)CC1)c1ccccc1 [Example 6, (R)-carbamic acid 3-[4-(4-chloro-phenyl)-piperazine-1-yl]-3-oxo-1-phenyl-propyl ester]
inhibition at 10 µM [1]: 114%
inhibition at 10 µM [2]: 11%

COc1ccc(N2CCN(C(=O)C[C@H](OC(N)=O)c3ccccc3)CC2)cc1OC [Example 7, (S)-carbamic acid 3-[4-(3,4-dimethoxy-phenyl)-piperazine-1-yl]-3-oxo-1-phenyl-propyl ester]
inhibition at 10 µM [1]: 69%
inhibition at 10 µM [2]: 2%

COc1ccc(N2CCN(C(=O)C[C@@H](OC(N)=O)c3ccccc3)CC2)cc1OC [Example 8, (R)-carbamic acid 3-[4-(3,4-dimethoxy-phenyl)-piperazine-1-yl]-3-oxo-1-phenyl-propyl ester]
inhibition at 10 µM [1]: 79%
expression level of MCP-1 gene in the renal cortex relative to control (MCP-1): 1.6±0.3 times
concentration of total cholesterol in serum ([3]; untreated diabetic 120±13, control 62±5 mg/dl): 66 ± 9 mg/dL
concentration of triglyceride in serum ([3]; untreated diabetic 760±162 mg/dl): 126 ± 44 mg/dL
inhibition at 10 µM [2]: 15%
expression level of fibronectin of the renal cortex (mRNA / beta actin mRNA) relative to control (fibronectin): 1.2±0.1 times
expression level of PAI-1 gene in the renal cortex relative to control (PAI-1): 1.1±0.2 times
expression level of TGF-β1 gene in the renal cortex relative to control (TGF-β1): 1.3±0.2 times

COc1ccc(N2CCN(C(C)CC(OC(N)=O)c3ccccc3)CC2)cc1OC (centres unmarked) [Example 9, carbamic acid 3-[4-(3,4-dimethoxy-phenyl)-piperazine-1-yl]-1-phenyl-butyl ester]
inhibition at 10 µM [1]: 62%
inhibition at 10 µM [2]: 0%

COc1ccc(N2CCN(C(=O)CC(OC(N)=O)c3ccc(Cl)cc3)CC2)cc1OC (centres unmarked) [Example 10, carbamic acid 3-[4-(3,4-dimethoxy-phenyl)-piperazine-1-yl]-1-(4-chloro-phenyl)-3-oxo-propyl ester]
inhibition at 10 µM [1]: 72%
inhibition at 10 µM [2]: 7%
